Converted amounts (≈) assume the structure as drawn. Where two headings read alike, the source gives them in different places.
Columns and labels:
[1] = 72 hr cytotoxicity assay; in vitro antitumor activity; type: cell-based; details: for in vitro antitumor activity: in words, compared with vinblastine
Method: The 18'(S)-epimer was tested in vitro for antitumor activity in comparison with the 18'(R)-epimer and vinblastine. IC50 's were determined in a 72 hr cytotoxicity assay.

[2] = cited from earlier work
[3] = 72 hr cytotoxicity assay, in vitro, cell line not given, read-out: IC50
[4] = compared with vinblastine and vincristine (Fellous et al., 1989)

CC[C@]12C=CCN3CC[C@@]4(c5cc([C@]6(C(=O)OC)C[C@@H]7CCCN(Cc8c6[nH]c6ccccc86)C7)c(OC)cc5N(C)[C@H]4[C@@](O)(C(=O)OC)[C@@H]1OC(C)=O)[C@@H]32 [18'(R)-Dihydrodesethylnavelbine, (+)-18'R-4'-Desethyl-4'-deshydroxy-7'-norvinblastine]
IC50 ([1]; 72 hr cytotoxicity assay, in vitro, cell line not given): no activity
in vitro antitumor activity [1]: inactive

CC[C@]12C=CCN3CC[C@@]4(c5cc([C@@]6(C(=O)OC)C[C@@H]7CCCN(Cc8c6[nH]c6ccccc86)C7)c(OC)cc5N(C)[C@H]4[C@@](O)(C(=O)OC)[C@@H]1OC(C)=O)[C@@H]32 [18'(S)-Dihydrodesethylnavelbine, (+)-18'S-4'-Desethyl-4'-deshydroxy-7'-norvinblastine]
IC50 ([1]; 72 h): 0.5 ng/mL (≈ 0.664 nM)
in vitro antitumor activity [1]: comparable to vinblastine

CCC1=C[C@@H]2CN(C1)Cc1c([nH]c3ccccc13)[C@@](C(=O)OC)(c1cc3c(cc1OC)N(C)[C@H]1[C@@](O)(C(=O)OC)[C@H](OC(C)=O)[C@]4(CC)C=CCN5CC[C@]31[C@@H]54)C2 [Navelbine]
IC50 [1, 3]: 5 ng/mL (≈ 6.42 nM)
cytotoxicity ([2]; compared with Vinblastine): decreased cytotoxicity compared with Vinblastine
antitumor activity [2, 4]: broader antitumor activity
neurotoxicity and other side effects [2, 4]: lower neurotoxicity and other side effects

CC[C@]1(O)C[C@@H]2CN(CCc3c([nH]c4ccccc34)[C@@](C(=O)OC)(c3cc4c(cc3OC)N(C)[C@H]3[C@@](O)(C(=O)OC)[C@H](OC(C)=O)[C@]5(CC)C=CCN6CC[C@]43[C@@H]65)C2)C1 [Vinblastine]
IC50 [1, 3]: 0.5 ng/mL (≈ 0.617 nM)

Reference: patent US5220016A, “Synthesis of navelbine analogs” (priority 1991, dated 1993)
